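Five concentrations, 48 hours, 96-well plates. The concentration for 50% growth inhibition is given as GI50. TGI marks complete inhibition of growth.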

Among the test systems are SF-268 CNS; CAKI-1 renal; NCI-H23 lung; SN12C renal; SW-620 colon; UO-31 renal; HCT-15 colon; RPMI-8226 leukemia; RXF 393 renal; SK-OV-3 ovarian.
Holding throughout (experiment): inhibition of tumour cell growth, NCI panel, 48 h

On to `CC1=C(C)C2(O)C(=C(C)C1=O)/C(=C(/O)c1ccccc1)c1nc3ccccc3n12` (centres undefined), for which the GI50 in the assay with SF-268 CNS is 35.7 µM; in the assay on CAKI-1 renal it was 17.3 µM; in the assay on NCI-H23 lung it was 15 µM; in the assay with SN12C renal it was 19.3 µM; in the assay with SW-620 colon, 29.4 µM; in the assay with UO-31 renal it was 25.6 µM. Further, the GI50 was 19.3 µM in the assay on HCT-15 colon, 13.2 µM in the assay with RPMI-8226 leukemia, 15.3 µM with RXF 393 renal and 18.2 µM in the assay with SK-OV-3 ovarian. Moreover, the TGI with SF-268 CNS is over 100 µM; with CAKI-1 renal, 55.9 µM; in the assay on NCI-H23 lung it was 29.9 µM; with SN12C renal, 34.6 µM; in the assay with SW-620 colon, over 100 µM; in the assay on UO-31 renal, over 100 µM. The TGI with HCT-15 colon was 46.5 µM; with RPMI-8226 leukemia it was 33.2 µM; with RXF 393 renal, 34.5 µM; in the assay on SK-OV-3 ovarian, 42.2 µM.

As to `CC1NC(=O)C2=C1C(N)=NC(=O)C2` (centres undefined), the TGI in the assay on SF-268 CNS, in the assay with CAKI-1 renal, with NCI-H23 lung, in the assay with SN12C renal, in the assay with SW-620 colon and in the assay with UO-31 renal was over 100 µM throughout. For the same compound, the TGI with HCT-15 colon, with RPMI-8226 leukemia, with RXF 393 renal and in the assay on SK-OV-3 ovarian was over 100 µM in each case.

As to `Cc1cccc(NC(=O)/C=C/c2ccc([N+](=O)[O-])cc2)c1`, the TGI with SF-268 CNS was over 76.8 µM; in the assay on CAKI-1 renal, over 54.4 µM; with NCI-H23 lung it was 31.7 µM; in the assay with SN12C renal, over 58.2 µM; in the assay with SW-620 colon, over 60.2 µM; in the assay with UO-31 renal, over 50.4 µM. Also, the TGI was over 56.7 µM in the assay on HCT-15 colon, over 68.8 µM in the assay on RPMI-8226 leukemia, over 52.7 µM in the assay on RXF 393 renal and over 61.5 µM in the assay with SK-OV-3 ovarian.

Turning to `C=C1C(=O)O[C@H]2[C@H]1CC/C(COC(=O)NCCc1c[nH]c3ccc(Cl)cc13)=C\CC[C@@]1(C)O[C@@H]21`, the GI50 was 1.77 µM in the assay with SF-268 CNS; 1.48 µM with CAKI-1 renal; 1.79 µM in the assay on NCI-H23 lung; 1.64 µM in the assay on SN12C renal; 1.82 µM in the assay with SW-620 colon; 1.31 µM in the assay on UO-31 renal. In addition, the GI50 with HCT-15 colon was 1.16 µM; with RPMI-8226 leukemia, 1.2 µM; in the assay on RXF 393 renal it was 1.54 µM; in the assay on SK-OV-3 ovarian it was 13.2 µM. The TGI in the assay with SF-268 CNS was determined as 3.37 µM; with CAKI-1 renal it was 2.82 µM; in the assay on NCI-H23 lung it was 3.49 µM; in the assay with SN12C renal, 3.17 µM; in the assay on SW-620 colon, 4.26 µM; with UO-31 renal, 2.59 µM. For the same compound, the TGI in the assay on HCT-15 colon stood at 2.66 µM; with RPMI-8226 leukemia it was 4.21 µM; in the assay with RXF 393 renal, 2.94 µM; in the assay with SK-OV-3 ovarian, 26 µM.

As to `NC(=Nc1ccc(N)cc1)C(N)=Nc1ccc(N)cc1`, the GI50 is over 100 µM in the assay on SF-268 CNS; 52.6 µM with CAKI-1 renal; over 100 µM with NCI-H23 lung; over 100 µM with SN12C renal; 64.1 µM with SW-620 colon; 33.5 µM in the assay with UO-31 renal. Also, the GI50 with HCT-15 colon was 42.6 µM; in the assay on RPMI-8226 leukemia it was over 100 µM; with RXF 393 renal it was over 100 µM; in the assay with SK-OV-3 ovarian, over 100 µM. Besides, the TGI in the assay with SF-268 CNS, with CAKI-1 renal, with NCI-H23 lung, in the assay on SN12C renal, in the assay with SW-620 colon and with UO-31 renal was over 100 µM in each case. Moreover, the TGI in the assay on HCT-15 colon, with RPMI-8226 leukemia, with RXF 393 renal and in the assay with SK-OV-3 ovarian was over 100 µM each time.

For `N#Cc1c(N)nc(NCc2ccccc2)c(C#N)c1-c1ccc(Cl)cc1Cl`, the TGI in the assay on SF-268 CNS is 1.18 µM; in the assay with CAKI-1 renal, over 100 µM; in the assay with NCI-H23 lung, over 100 µM; with SN12C renal, over 100 µM; in the assay on SW-620 colon, over 100 µM; in the assay with UO-31 renal, over 100 µM. Besides, the TGI with HCT-15 colon, with RPMI-8226 leukemia, in the assay with RXF 393 renal and in the assay on SK-OV-3 ovarian was over 100 µM throughout. Besides, the GI50 is over 100 µM in the assay on CAKI-1 renal; over 76.1 µM in the assay with NCI-H23 lung; over 100 µM with SN12C renal; 74.4 µM with SW-620 colon; over 100 µM in the assay with UO-31 renal; over 100 µM in the assay on HCT-15 colon. Also, the GI50 in the assay on RPMI-8226 leukemia is 33.5 µM; in the assay on RXF 393 renal it was 52.4 µM; in the assay with SK-OV-3 ovarian, over 100 µM.

Consider `N#CN1CC[C@H](C(=O)Nc2cc3cc(C(N)=O)ccc3cn2)C1`, for which the GI50 in the assay with SF-268 CNS was 0.0732 µM; in the assay with CAKI-1 renal, 0.487 µM; in the assay on NCI-H23 lung, 0.13 µM; with SN12C renal, 0.117 µM; with SW-620 colon, 0.0969 µM; in the assay on UO-31 renal, 0.107 µM. Also, the GI50 in the assay on HCT-15 colon was 0.302 µM; in the assay with RPMI-8226 leukemia, 0.272 µM; in the assay on RXF 393 renal, 0.0426 µM; in the assay on SK-OV-3 ovarian it was 0.37 µM. Moreover, the TGI in the assay on SF-268 CNS is 24.3 µM; with CAKI-1 renal it was over 100 µM; in the assay with NCI-H23 lung, 2.05 µM; with SN12C renal, 46.7 µM; in the assay with SW-620 colon it was over 84.9 µM; with UO-31 renal, 0.518 µM. Also, the TGI with HCT-15 colon is over 100 µM; in the assay with RPMI-8226 leukemia it was 1.46 µM; in the assay on RXF 393 renal it was 0.21 µM; in the assay with SK-OV-3 ovarian it was over 100 µM.

Turning to `C[C@@H]1COCCN1c1cc(C2([S@@](C)(=N)=O)CC2)nc(-c2ccnc3[nH]ccc23)n1`, the GI50 in the assay on SF-268 CNS was 9.66 µM; with CAKI-1 renal, 11.7 µM; in the assay on NCI-H23 lung, 3.3 µM; in the assay with SN12C renal it was 6.02 µM; in the assay on SW-620 colon, 8 µM; in the assay on UO-31 renal it was 4 µM. Besides, the GI50 in the assay on HCT-15 colon was 10 µM; with RPMI-8226 leukemia it was 6.21 µM; with RXF 393 renal, 2.34 µM; in the assay with SK-OV-3 ovarian, 2.95 µM. Further, the TGI was over 100 µM with SF-268 CNS; over 79.2 µM with CAKI-1 renal; 45.2 µM in the assay with NCI-H23 lung; over 100 µM with SN12C renal; over 100 µM in the assay with SW-620 colon; 50 µM with UO-31 renal. Also, the TGI in the assay with HCT-15 colon was over 100 µM; in the assay with RPMI-8226 leukemia, over 60.9 µM; with RXF 393 renal it was 9.68 µM; with SK-OV-3 ovarian, 27.4 µM.

For the origin of these results see PubChem BioAssay (NCI).
